Values after ≈ are worked out from the molar mass of the structure shown. Where two headings read alike, the source gives them in different places.
Assays:
Salmonella sp. = experiment: Mueller-Hinton agar dilution method (MIC); type: cell-based; details: strain SSC-79-57, Table I, read-out: Minimal Inhibitory Concentration
Source text: The results appear in Tables I, II, and III.

Staphylococcus aureus [1] = experiment: Mueller-Hinton agar dilution method (MIC); type: cell-based; details: read-out: Minimal Inhibitory Concentration
Salmonella (arizona) = experiment: Mueller-Hinton agar dilution method (MIC); type: cell-based; details: strain QHC-77-3, Table I, read-out: Minimal Inhibitory Concentration
Enterobacter aerogenes = experiment: Mueller-Hinton agar dilution method (MIC); type: cell-based; details: Klebsiella aerogenes; strain STFD-79-14; Table I; read-out: Minimal Inhibitory Concentration
Enterobacter cloacae = experiment: Mueller-Hinton agar dilution method (MIC); type: cell-based; details: read-out: Minimal Inhibitory Concentration
Enterococcus sp. = experiment: Mueller-Hinton agar dilution method (MIC); type: cell-based; details: Table I
Providencia stuartti = experiment: Mueller-Hinton agar dilution method (MIC); type: cell-based; details: strain K-81-29, Table I, read-out: Minimal Inhibitory Concentration
Klebsiella oxytoca = experiment: Mueller-Hinton agar dilution method (MIC); type: cell-based; details: strain K-81-6, Table I, read-out: Minimal Inhibitory Concentration
Serratia marcescens = experiment: Mueller-Hinton agar dilution method (MIC); type: cell-based; details: read-out: Minimal Inhibitory Concentration
Klebsiella pneumoniae = experiment: Mueller-Hinton agar dilution method (MIC); type: cell-based; details: Table I
Proteus rettgeri = experiment: Mueller-Hinton agar dilution method (MIC); type: cell-based; details: Providencia rettgeri; strain N-76-1; Table I; read-out: Minimal Inhibitory Concentration
Acinetobacter sp. = experiment: Mueller-Hinton agar dilution method (MIC); type: cell-based; details: read-out: Minimal Inhibitory Concentration
Staphylococcus aureus [2] = experiment: control of systemic lethal infections in mice; type: in vivo, mice (Charles River Laboratories CD-1 strain female); details: sc, 168 h, survival at 7 days, three tests pooled, read-out: Median Effective Dose (ED50)
Protocol: (§1) The test employed used Charles River Laboratories CD-1 strain female mice each weighing 20+2 grams. The mice were infected by intraperitoneal injection of sufficient bacteria (see Table 2), contained in either 0.5 ml. of 5% mucin (S. aureus strains) or broth (S. pyogenes or E. coli), to kill 95-100% of untreated mice within 48 hours.
(§2) The mice were treated by subcutaneous injection 30 minutes after infection with the test drug at varying doses contained in 0.5 ml. of 0.2% aqueous agar. Survival ratios seven days after infection were recorded.

Escherichia coli [3] = experiment: control of systemic lethal infections in mice; type: in vivo, mice (Charles River Laboratories CD-1 strain female); details: sc, 168 h, strain 311, subcutaneous 30 min after i.p. infection, survival at 7 days, three tests pooled, 95% confidence limits (0.28-0.44), read-out: Median Effective Dose (ED50)
Protocol: as §1, §2

Staphylococcus pyogenes = experiment: control of systemic lethal infections in mice; type: in vivo, mice (Charles River Laboratories CD-1 strain female); details: Staphylococcus aureus, sc, 168 h; strain C 203; subcutaneous 30 min after i.p. infection; survival at 7 days; three tests pooled; 95% confidence limits (0.08-0.13); read-out: Median Effective Dose (ED50)
Protocol: as §1, §2

Citrobacter sp. = experiment: Mueller-Hinton agar dilution method (MIC); type: cell-based; details: strain K-81-27, Table I, read-out: Minimal Inhibitory Concentration
Proteus morganii = experiment: Mueller-Hinton agar dilution method (MIC); type: cell-based; details: Morganella morganii, Table I, read-out: Minimal Inhibitory Concentration
Pseudomonas aeruginosa = experiment: Mueller-Hinton agar dilution method (MIC); type: cell-based; details: read-out: Minimal Inhibitory Concentration
Escherichia coli [4] = experiment: Mueller-Hinton agar dilution method (MIC); type: cell-based; details: read-out: Minimal Inhibitory Concentration

Compound: CO/N=C(\C(=O)N[C@@H]1C(=O)N2C(C(=O)O)=C(CSc3cnns3)CS[C@H]12)c1csc(N)n1 [Compound Ia, 7 beta-[alpha-syn-methoxyimino-alpha-(2-aminothiazol-4-yl)acetamido]-3-[(1,2,3-thiadiazol-5-ylthio)methyl]-3-cephem-4-carboxylic acid]
- MIC (Salmonella sp.): 0.25 µg/mL (≈ 0.487 µM)
- MIC (Staphylococcus aureus [1]; beta-lactamase negative, strain SSC 79-3, Table II): 0.12 µg/mL (≈ 0.234 µM)
- MIC (Staphylococcus aureus [1]; beta-lactamase negative, strain SSC 79-5, Table II): 0.5 µg/mL (≈ 0.974 µM)
- MIC (Staphylococcus aureus [1]; beta-lactamase negative, strain SSC 79-7, Table II): 0.12 µg/mL (≈ 0.234 µM)
- MIC (Staphylococcus aureus [1]; beta-lactamase negative, strain SSC 79-9, Table II): 0.12 µg/mL (≈ 0.234 µM)
- MIC (Staphylococcus aureus [1]; beta-lactamase negative, strain SSC 79-10, Table II): 0.12 µg/mL (≈ 0.234 µM)
- MIC (Staphylococcus aureus [1]; beta-lactamase negative, strain SSC 79-11, Table II): 0.12 µg/mL (≈ 0.234 µM)
- MIC (Staphylococcus aureus [1]; beta-lactamase negative, strain SSC 79-14, Table II): 0.5 µg/mL (≈ 0.974 µM)
- MIC (Staphylococcus aureus [1]; beta-lactamase negative, strain SSC 79-15, Table II): 0.5 µg/mL (≈ 0.974 µM)
- MIC (Staphylococcus aureus [1]; beta-lactamase negative, strain SSC 79-17, Table II): 0.25 µg/mL (≈ 0.487 µM)
- MIC (Staphylococcus aureus [1]; beta-lactamase positive, strain SSC 79-24, Table II): 4 µg/mL (≈ 7.79 µM)
- MIC (Staphylococcus aureus [1]; beta-lactamase positive, strain SSC 79-27, Table II): 0.25 µg/mL (≈ 0.487 µM)
- MIC (Staphylococcus aureus [1]; beta-lactamase positive, strain SSC 79-28, Table II): 0.25 µg/mL (≈ 0.487 µM)
- MIC (Staphylococcus aureus [1]; beta-lactamase positive, strain SSC 79-36, Table II): 0.25 µg/mL (≈ 0.487 µM)
- MIC (Staphylococcus aureus [1]; beta-lactamase positive, strain SSC 79-38, Table II): 0.25 µg/mL (≈ 0.487 µM)
- MIC (Staphylococcus aureus [1]; beta-lactamase positive, strain SSC 79-39, Table II): 0.25 µg/mL (≈ 0.487 µM)
- MIC (Staphylococcus aureus [1]; beta-lactamase positive, strain SSC 79-41, Table II): 0.5 µg/mL (≈ 0.974 µM)
- MIC (Staphylococcus aureus [1]; beta-lactamase positive, strain SSC 79-44, Table II): 0.12 µg/mL (≈ 0.234 µM)
- MIC (Staphylococcus aureus [1]; beta-lactamase positive, strain SSC 79-47, Table II): 0.25 µg/mL (≈ 0.487 µM)
- MIC (Staphylococcus aureus [1]; strain FU-79-19-2, Table I): 0.5 µg/mL (≈ 0.974 µM)
- MIC (Staphylococcus aureus [1]; strain SSC-79-18, Table I): 0.25 µg/mL (≈ 0.487 µM)
- MIC (Staphylococcus aureus [1]; strain SSC-80-15, Table I): 0.5 µg/mL (≈ 0.974 µM)
- MIC (Staphylococcus aureus [1]; strain Smith, Table I): 0.25 µg/mL (≈ 0.487 µM)
- MIC (Salmonella (arizona)): 0.03 µg/mL (≈ 0.0584 µM)
- MIC (Enterobacter aerogenes): 0.03 µg/mL (≈ 0.0584 µM)
- MIC (Enterobacter cloacae; strain K-79-16, Table I): 0.25 µg/mL (≈ 0.487 µM)
- MIC (Enterobacter cloacae; strain K-81-46, Table I): 0.12 µg/mL (≈ 0.234 µM)
- MIC (Enterococcus sp.; Enterococcus, strain OSU-75-1, read-out: Minimal Inhibitory Concentration): 32 µg/mL (≈ 62.3 µM)
- Minimal Inhibitory Concentration (Enterococcus sp.; strain SM-77-15): 32 µg/mL
- MIC (Providencia stuartti): 0.06 µg/mL (≈ 0.117 µM)
- MIC (Klebsiella oxytoca): 0.03 µg/mL (≈ 0.0584 µM)
- MIC (Serratia marcescens; strain K-81-39, Table I): 0.12 µg/mL (≈ 0.234 µM)
- MIC (Serratia marcescens; strain QHC-77-2, Table I): 1 µg/mL (≈ 1.95 µM)
- MIC (Serratia marcescens; strain TUL-78-15, Table I): 1 µg/mL (≈ 1.95 µM)
- MIC (Klebsiella pneumoniae; Klebsiella pneumoniae, strain STFD-79-16, read-out: Minimal Inhibitory Concentration): 0.015 µg/mL (≈ 0.0292 µM)
- Minimal Inhibitory Concentration (Klebsiella pneumoniae; strain SSC-78-1): .015 µg/mL
- MIC (Proteus rettgeri): 0.015 µg/mL (≈ 0.0292 µM)
- MIC (Acinetobacter sp.; strain K-77-1, Table I): 4 µg/mL (≈ 7.79 µM)
- MIC (Acinetobacter sp.; strain K-77-6, Table I): 16 µg/mL (≈ 31.2 µM)
- MIC (Acinetobacter sp.; strain STFD-79-17, Table I): 16 µg/mL (≈ 31.2 µM)
- ED50 (Staphylococcus aureus [2]; strain Fu-79-2, subcutaneous 30 min after i.p. infection, 95% confidence limits (4.4-8.4)): 6.1 mg/kg
- ED50 (Staphylococcus aureus [2]; strain Smith, subcutaneous 30 min after i.p. infection, 95% confidence limits (2.4-3.6)): 2.9 mg/kg
- ED50 (Escherichia coli [3]): 0.35 mg/kg
- ED50 (Staphylococcus pyogenes): 0.1 mg/kg
- MIC (Citrobacter sp.): 0.03 µg/mL (≈ 0.0584 µM)
- MIC (Proteus morganii; strain K-77-3): 4 µg/mL (≈ 7.79 µM)
- MIC (Proteus morganii; strain K-79-25): 0.015 µg/mL (≈ 0.0292 µM)
- MIC (Pseudomonas aeruginosa; strain 12-4-4, Table I): 32 µg/mL (≈ 62.3 µM)
- MIC (Pseudomonas aeruginosa; strain SSC-78-13, Table I): 64 µg/mL (≈ 125 µM)
- MIC (Pseudomonas aeruginosa; strain TUL-78-2, Table I): 128 µg/mL (≈ 249 µM)
- MIC (Escherichia coli [4]; strain #311, Table I): 0.03 µg/mL (≈ 0.0584 µM)
- MIC (Escherichia coli [4]; strain K-81-14, Table I): 0.06 µg/mL (≈ 0.117 µM)
- MIC (Escherichia coli [4]; strain STFD-79-20, Table I): 0.015 µg/mL (≈ 0.0292 µM)
